In patent publication US9012458B2, “Antitumor agent using compounds having kinase inhibitory effect in combination” (Eisai R&D Management Co., Ltd., priority 2010, dated 2015):
Counter-ions that a name gives are not always drawn.

Tested on: human ovarian cancer cell line (A2780)
Experiment: Combined effect in model animal transplanted with human ovarian cancer cell line (A2780)
Type: in vivo
Details: A2780 s.c. in nude mouse, Compound A 10 mg/kg, Compound B 100 mg/kg, oral once daily, average ± standard deviation
Protocol: The human ovarian cancer cell line A2780 (ATCC) was cultured using a 10% FBS-containing RPMI 1640 medium (SIGMA) in a 5% CO2 incubator under the condition of 37° C. When the cells reached a state of approximately 80% confluency, the cells were collected using trypsin-EDTA. To these cells, a Hanks' Balanced Salt Solution containing 50% Matrigel was added to prepare a suspension at a concentration of 5.0×10^7 cells/mL. The cell suspension thus obtained was subcutaneously transplanted at the lateral side of the body of a nude mouse (CAnN.Cg-Foxn1nu/CrlCrlj, Charles River Laboratories Japan, Inc.) in an amount of 0.1 mL, where each group contained six mice. Compound A (10 mg/kg, once daily, for 10 days) and Compound B (100 mg/kg, once daily, for 10 days) were orally administered, either individually or both in a row.
Setting the initial day of administration at Day 0, the major axis and the minor axis of a tumor developed in each mouse were measured using Digimatic caliper (Mitsutoyo Corporation) thereafter on Day 3, 5, 8, and 10.
The tumor volume and the relative tumor volume were calculated according to the equations below. TV=major axis (mm)×minor axis^2 (mm^2)/2 RTV=TV on the day of measurement/TV on the initial day of administration

COc1cc2nccc(Oc3ccc(NC(=O)NC4CC4)c(Cl)c3)c2cc1C(N)=O [Compound A, 4-(3-chloro-4-(cyclopropylaminocarbonyl)aminophenoxy)-7-methoxy-6-quinolinecarboxamide mesylate]
RTV (relative tumor volume) Day 3: 1.92 ± 0.17
RTV (relative tumor volume) Day 5: 4.77 ± 0.85
RTV (relative tumor volume) Day 8: 9.51 ± 2.44
RTV (relative tumor volume) Day 10: 12.37 ± 3.53

CN1CCN(C2CCN(C(=O)Nc3cc(Oc4ccc(NC(=O)C5(C(=O)Nc6ccc(F)cc6)CC5)c(F)c4)ccn3)CC2)CC1 [Compound B, N-(2-fluoro-4-{[2-({[4-(4-methylpiperazin-1-yl)piperidin-1-yl]carbonyl}amino)pyridin-4-yl]oxy}phenyl)-N′-(4-fluorophenyl)cyclopropane-1,1-dicarboxamide tartrate]
RTV (relative tumor volume) Day 3: 2.23 ± 0.42
RTV (relative tumor volume) Day 5: 7.01 ± 1.54
RTV (relative tumor volume) Day 8: 15.70 ± 2.27
RTV (relative tumor volume) Day 10: 21.29 ± 2.76
